Drawing on patent US7501430B2 (ArQule, Inc., priority 2006, dated 2009), this text covers IC50 for 29 molecules.

What is called IC50 is the concentration that gives 50% inhibition.

The target of this assay is T1, mutant B-RAF (Homo sapiens, UniProt P15056, V600E).
T1 construct: purchased Upstate (Charlottesville, Va.)
As to the kind of experiment: RAF biochemical assay (MEK-1 phosphorylation, anti-phospho MEK1/2 detection). Conditions: read-out: Mutant B-RAF IC50. The method, boiled down:
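Detection is by ELISA: after a 30 min room-temperature reaction, plate-captured GST-MEK-1 is probed with anti-phospho MEK1/2, then an AP-tagged secondary antibody with fluorescent Attophos read-out.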

The structures appear in SMILES notation.

T1 sequence (P15056 whole entry V600E): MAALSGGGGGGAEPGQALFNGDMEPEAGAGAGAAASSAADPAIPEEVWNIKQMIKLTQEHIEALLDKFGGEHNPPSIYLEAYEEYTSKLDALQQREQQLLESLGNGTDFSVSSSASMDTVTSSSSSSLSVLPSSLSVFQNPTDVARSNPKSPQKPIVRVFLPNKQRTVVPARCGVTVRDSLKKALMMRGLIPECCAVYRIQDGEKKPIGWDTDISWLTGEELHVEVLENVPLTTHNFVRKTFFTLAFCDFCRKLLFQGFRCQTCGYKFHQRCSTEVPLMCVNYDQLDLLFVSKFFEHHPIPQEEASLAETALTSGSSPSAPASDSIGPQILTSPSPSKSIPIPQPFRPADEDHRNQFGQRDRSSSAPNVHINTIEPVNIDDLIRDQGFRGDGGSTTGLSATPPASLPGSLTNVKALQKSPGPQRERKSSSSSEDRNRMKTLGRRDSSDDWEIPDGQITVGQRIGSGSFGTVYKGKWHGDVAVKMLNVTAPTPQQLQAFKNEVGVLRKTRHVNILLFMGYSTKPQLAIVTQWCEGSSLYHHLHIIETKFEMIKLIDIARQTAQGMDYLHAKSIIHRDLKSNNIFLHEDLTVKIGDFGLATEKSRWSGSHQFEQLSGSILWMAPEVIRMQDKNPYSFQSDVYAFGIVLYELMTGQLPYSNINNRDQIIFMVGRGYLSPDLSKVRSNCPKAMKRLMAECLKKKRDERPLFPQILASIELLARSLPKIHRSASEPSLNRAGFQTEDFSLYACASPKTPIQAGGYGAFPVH

On to `O=C(NS(=O)(=O)c1ccc(Cl)cc1)N1CCC(Nc2nccc(-c3c(-c4cccc(O)c4)nc4sccn34)n2)CC1` [Example 336, N-[(4-chlorophenyl)sulfonyl]-4-({4-[6-(3-hydroxyphenyl)imidazo[2,1-b][1,3]thiazol-5-yl]pyrimidin-2-yl}amino)piperidine-1-carboxamide], for which the IC50 amounted to 1050 nM. As for `COc1cccc(-c2nc3occn3c2-c2ccnc(NC3CCNCC3)n2)c1` [Example 337, 4-[6-(3-methoxyphenyl)imidazo[2,1-b][1,3]oxazol-5-yl]-N-piperidin-4-ylpyrimidin-2-amine], the IC50 is 3210 nM. The value for `COc1cccc(-c2nc3occn3c2-c2ccnc(NC3CCN(S(=O)(=O)C4CC4)CC3)n2)c1` [Example 338, N-[1-(cyclopropylsulfonyl)piperidin-4-yl]-4-[6-(3-methoxyphenyl)imidazo[2,1-b][1,3]oxazol-5-yl]pyrimidin-2-amine] was 6990 nM. Consider `O=S(=O)(C1CC1)N1CCC(Nc2nccc(-c3c(-c4cccc(O)c4)nc4occn34)n2)CC1` [Example 339, 3-[5-(2-{[1-(cyclopropylsulfonyl)piperidin-4-yl]amino}pyrimidin-4-yl)imidazo[2,1-b][1,3]oxazol-6-yl]phenol], for which the IC50 worked out at 46 nM.

`O=C(OC[C@H](O)CO)c1ccc(S(=O)(=O)N2CCC[C@@H](Nc3nccc(-c4c(-c5cccc(O)c5)nc5sccn45)n3)C2)cc1` [Example 341, (2R)-2,3-dihydroxypropyl 4-{[(3R)-3-({4-[6-(3-hydroxyphenyl)imidazo[2,1-b][1,3]thiazol-5-yl]pyrimidin-2-yl}amino)piperidin-1-yl]sulfonyl}benzoate]: the half-maximal inhibitory concentration (IC50) is 33 nM. The value for `CS(=O)(=O)N1CCC(Nc2nccc(-c3c(-c4cccc(O)c4)nc4occn34)n2)CC1` [Example 342, 3-[5-(2-{[1-(methylsulfonyl)piperidin-4-yl]amino}pyrimidin-4-yl)imidazo[2,1-b][1,3]oxazol-6-yl]phenol] was 258 nM; that for `O=C(Nc1ccc(O)cc1)N1CCC[C@@H](Nc2nccc(-c3c(-c4cccc(O)c4)nc4sccn34)n2)C1` [Example 343, (3R)-N-(4-hydroxyphenyl)-3-({4-[6-(3-hydroxyphenyl)imidazo[2,1-b][1,3]thiazol-5-yl]pyrimidin-2-yl}amino)piperidine-1-carboxamide] was 1440 nM; that for `CSc1ccc(NC(=O)N2CCC[C@@H](Nc3nccc(-c4c(-c5cccc(O)c5)nc5sccn45)n3)C2)cc1` [Example 344, (3R)-3-({4-[6-(3-hydroxyphenyl)imidazo[2,1-b][1,3]thiazol-5-yl]pyrimidin-2-yl}amino)-N-[4-(methylthio)phenyl]piperidine-1-carboxamide] was 2450 nM. The value for `CS(=O)(=O)Nc1cccc(-c2nc3sccn3c2-c2ccnc(N[C@@H]3CCCN(S(=O)(=O)c4ccc(Cl)cc4)C3)n2)c1` [Example 346, N-(3-{5-[2-({(3R)-1-[(4-chlorophenyl)sulfonyl]piperidin-3-yl}amino)pyrimidin-4-yl]imidazo[2,1-b][1,3]thiazol-6-yl}phenyl)methanesulfonamide] was 880 nM; that for `CCNC(=O)Nc1cccc(-c2nc3sccn3c2-c2ccnc(N[C@@H]3CCCN(S(=O)(=O)c4ccc(Cl)cc4)C3)n2)c1` [Example 347, 1-(3-{5-[2-({(3R)-1-[(4-chlorophenyl)sulfonyl]piperidin-3-yl}amino)pyrimidin-4-yl]imidazo[2,1-b][1,3]thiazol-6-yl}phenyl)-3-ethyl urea] was 546 nM; that for `COc1cc(-c2nc3sccn3c2-c2ccnc(N[C@@H]3CCCN(S(=O)(=O)c4ccc(Cl)cc4)C3)n2)ccc1F` [Example 348, N-{(3R)-1-[(4-chlorophenyl)sulfonyl]piperidin-3-yl}-4-[6-(4-fluoro-3-methoxyphenyl)imidazo[2,1-b][1,3]thiazol-5-yl]pyrimidin-2-amine] was 105 nM. On to `COc1cc(-c2nc3sccn3c2-c2ccnc(NC3CCN(S(=O)(=O)C4CC4)CC3)n2)ccc1F` [Example 349, N-[1-(cyclopropylsulfonyl)piperidin-4-yl]-4-[6-(4-fluoro-3-methoxyphenyl)imidazo[2,1-b][1,3]thiazol-5-yl]pyrimidin-2-amine], for which the concentration for half-maximal inhibition (IC50) came to 2600 nM. The value for `NC(=O)c1cccc(-c2nc3sccn3c2-c2ccnc(N[C@@H]3CCCN(S(=O)(=O)c4ccc(Cl)cc4)C3)n2)c1` [Example 350, 3-{5-[2-({(3R)-1-[(4-chlorophenyl)sulfonyl]piperidin-3-yl}amino)pyrimidin-4-yl]imidazo[2,1-b][1,3]thiazol-6-yl}benzamide] was 140 nM.

For `CC(C)NC(=O)N1CCC(Nc2nccc(-c3c(-c4cccc(O)c4)nc4sccn34)n2)CC1` [Example 351, 4-({4-[6-(3-hydroxyphenyl)imidazo[2,1-b][1,3]thiazol-5-yl]pyrimidin-2-yl}amino)-N-isopropylpiperidine-1-carboxamide], the IC50 was determined as 940 nM.

With `CNC(=O)N1CCC(Nc2nccc(-c3c(-c4cccc(O)c4)nc4sccn34)n2)CC1` [Example 352, 4-({4-[6-(3-hydroxyphenyl)imidazo[2,1-b][1,3]thiazol-5-yl]pyrimidin-2-yl}amino)-N-methylpiperidine-1-carboxamide], the IC50 is 670 nM. The value for `O=S(=O)(c1ccc(Cl)cc1)N1CCC[C@@H](Nc2nccc(-c3c(-c4ccc(F)c(O)c4)nc4sccn34)n2)C1` [Example 353, 5-{5-[2-({(3R)-1-[(4-chlorophenyl)suifonyl]piperidin-3-yl}amino)pyrimidin-4-yl]imidazo[2,1-b][1,3]thiazol-6-yl}-2-fluorophenol] was 3 nM. Then `O=S(=O)(C1CC1)N1CCC(Nc2nccc(-c3c(-c4ccc(F)c(O)c4)nc4sccn34)n2)CC1` [Example 354, 5-[5-(2-{[1-(cyclopropylsulfonyl)piperidin-4-yl]amino}pyrimidin-4-yl)imidazo[2,1-b][1,3]thiazol-6-yl]-2-fluorophenol], with 0.03 nM. Then `CCCNC(=O)N1CCC(Nc2nccc(-c3c(-c4cccc(O)c4)nc4sccn34)n2)CC1` [Example 355, 4-({4-[6-(3-hydroxyphenyl)imidazo[2,1-b][1,3]thiazol-5-yl]pyrimidin-2-yl}amino)-N-propylpiperidine-1-carboxamide], with 1790 nM. Turning to `O=C(NC1CCCC1)N1CCC(Nc2nccc(-c3c(-c4cccc(O)c4)nc4sccn34)n2)CC1` [Example 356, N-cyclopentyl-4-({4-[6-(3-hydroxyphenyl)imidazo[2,1-b][1,3]thiazol-5-yl]pyrimidin-2-yl}amino)piperidine-1-carboxamide], the 50% inhibitory concentration (IC50) was found to be 2540 nM. With `N#Cc1ccc(-c2nc3sccn3c2-c2ccnc(N[C@@H]3CCCN(S(=O)(=O)c4ccc(Cl)cc4)C3)n2)cc1` [Example 360, 4-{5-[2-({(3R)-1-[(4-chlorophenyl)sulfonyl]piperidin-3-yl}amino)pyrimidin-4-yl]imidazo[2,1-b][1,3]thiazol-6-yl}benzonitrile], the IC50 was determined as 2470 nM. Then `CCOC(=O)c1ccc(-c2nc3sccn3c2-c2ccnc(N[C@@H]3CCCN(S(=O)(=O)c4ccc(Cl)cc4)C3)n2)cc1` [Example 361, ethyl 4-{5-[2-({(3R)-1-[(4-chlorophenyl)sulfonyl]piperidin-3-yl}amino)pyrimidin-4-yl]imidazo[2,1-b][1,3]thiazol-6-yl}benzoate], with 3250 nM; and `NC(=O)Oc1cccc(-c2nc3sccn3c2-c2ccnc(N[C@@H]3CCCN(S(=O)(=O)c4ccc(Cl)cc4)C3)n2)c1` [Example 364, 3-{5-[2-({(3R)-1-[(4-chlorophenyl)sulfonyl]piperidin-3-yl}amino)pyrimidin-4-yl]imidazo[2,1-b][1,3]thiazol-6-yl}phenyl carbamate], with 7 nM.

Turning to `Cc1nc(-c2cccc(-c3nc4sccn4c3-c3ccnc(N[C@@H]4CCCNC4)n3)c2)no1` [Example 365, 4-{6-[3-(5-methyl-1,2,4-oxadia-zol-3-yl)phenyl]imidazo[2,1-b][1,3]thiazol-5-yl}-N-[(3R)-piperidin-3-yl]pyrimidin-2-amine], the half-maximal inhibitory concentration (IC50) is 30 nM. For the molecule `Cn1cnc(S(=O)(=O)N2CCC[C@@H](Nc3nccc(-c4c(-c5cccc(O)c5)nc5sccn45)n3)C2)c1` [Example 366, 3-{5-[2-({(3R)-1-[(1-methyl-1H-imidazol-4-yl)sulfonyl]piperidin-3-yl}amino)pyrimidin-4-yl]imidazo[2,1-b][1,3]thiazol-6-yl}phenol], the IC50 was 11 nM. Then `O=S(=O)(c1ccsc1)N1CCC[C@@H](Nc2nccc(-c3c(-c4cccc(O)c4)nc4sccn34)n2)C1` [Example 367, 3-[5-(2-{[(3R)-1-(3-thienylsulfonyl)piperidin-3-yl]amino}pyrimidin-4-yl)imidazo[2,1-b][1,3]thiazol-6-yl]phenol], with 3 nM; and `CC(C)S(=O)(=O)N1CCC[C@@H](Nc2nccc(-c3c(-c4cccc(O)c4)nc4sccn34)n2)C1` [Example 368, 3-[5-(2-{[(3R)-1-(isopropylsulfonyl)piperidin-3-yl]amino}pyrimidin-4-yl)imidazo[2,1-b][1,3]thiazol-6-yl]phenol], with over 3000 nM; and `O=S(=O)(Cc1ccccc1)N1CCC[C@@H](Nc2nccc(-c3c(-c4cccc(O)c4)nc4sccn34)n2)C1` [Example 369, 3-[5-(2-{[(3R)-1-(benzylsulfonyl)piperidin-3-yl]amino}pyrimidin-4-yl)imidazo[2,1-b][1,3]thiazol-6-yl]phenol], with over 3000 nM. Then `CCCS(=O)(=O)N1CCC[C@@H](Nc2nccc(-c3c(-c4cccc(O)c4)nc4sccn34)n2)C1` [Example 370, 3-[5-(2-{[(3R)-1-(propylsulfonyl)piperidin-3-yl]amino}pyrimidin-4-yl)imidazo[2,1-b][1,3]thiazol-6-yl]phenol], with 1200 nM; and `O=S(=O)(c1cccs1)N1CCC[C@@H](Nc2nccc(-c3c(-c4cccc(O)c4)nc4sccn34)n2)C1` [Example 371, 3-[5-(2-{[(3R)-1-(2-thienylsulfonyl)piperidin-3-yl]amino}pyrimidin-4-yl)imidazo[2,1-b][1,3]thiazol-6-yl]phenol], with 3 nM.
